Publication PMC2924314, “Peptides derived from the HIV-1 integrase promote HIV-1 infection and multi-integration of viral cDNA in LEDGF/p75-knockdown cells” (Virology Journal, 2010)
Where no end group is shown, it is not given here.

How the values were obtained:
LEDGF/p75 = biological target: T1, LEDGF/p75 (Homo sapiens, UniProt O75475); experiment: ELISA binding of peptides to LEDGF/p75; conditions: apparent Kd according to ELISA using LEDGF and BSA alone as control; peptide-coated plates, room temperature, OD 490 nm, duplicate
T1 construct: histidine tag; made in house
Description: Expression and purification of the histidine-tagged IN and LEDGF/p75 expression vectors, were a generous gift from Prof. Engelman, Dana-Farber Cancer Institute and Division of AIDS, Harvard Medical School, Boston, MA, USA), were performed essentially as described previously.
Protein-peptide, protein-protein and protein-DNA binding was estimated using an ELISA-based binding assay exactly as described previously. Briefly, Maxisorp plates (Nunc) were incubated at room temperature for 2 h with […] of 10 μg/ml synthetic peptide/recombinant proteins in carbonate buffer. After incubation, the solution was removed, the plates were washed three times with PBS, and 200 μl of 10% BSA (Sigma) in PBS (w/v) was added and the plates were further incubated for 2 h at room temperature. After rewashing with PBS, the tested BSA-biotinilated (Bb) peptide or protein (alone or biotinilated) was added for a further 1-h incubation at room temperature. Following three washes with PBS, the concentration of bound molecules was estimated following the addition of streptavidin-horseradish peroxidase (HRP) conjugate (Sigma), as described previously. The enzymatic activity of HRP was estimated by monitoring the product's optical density (OD) at 490 nm using an ELISA plate reader (Tecan Sunrise, Männedorf, Switzerland). Each measurement was performed in duplicate. […]

[1] = ref [25]; cited from earlier work
From the text: Following integration of the viral cDNA, several viral proteins are expressed, among them Rev. After its nuclear import the Rev protein is involved in nuclear export of unspliced and partially spliced viral RNA molecules. Thus, similar to IN, the presence the Rev protein is essential for completion of the HIV-1 life cycle. In addition to its expression from integrated viral DNA, Rev can be expressed from unintegrated DNA molecules and thus appear at an early stage in virus-infected cells. Recently, we have shown that early expressed Rev can interact with IN in ...

T1 sequence (O75475 whole entry): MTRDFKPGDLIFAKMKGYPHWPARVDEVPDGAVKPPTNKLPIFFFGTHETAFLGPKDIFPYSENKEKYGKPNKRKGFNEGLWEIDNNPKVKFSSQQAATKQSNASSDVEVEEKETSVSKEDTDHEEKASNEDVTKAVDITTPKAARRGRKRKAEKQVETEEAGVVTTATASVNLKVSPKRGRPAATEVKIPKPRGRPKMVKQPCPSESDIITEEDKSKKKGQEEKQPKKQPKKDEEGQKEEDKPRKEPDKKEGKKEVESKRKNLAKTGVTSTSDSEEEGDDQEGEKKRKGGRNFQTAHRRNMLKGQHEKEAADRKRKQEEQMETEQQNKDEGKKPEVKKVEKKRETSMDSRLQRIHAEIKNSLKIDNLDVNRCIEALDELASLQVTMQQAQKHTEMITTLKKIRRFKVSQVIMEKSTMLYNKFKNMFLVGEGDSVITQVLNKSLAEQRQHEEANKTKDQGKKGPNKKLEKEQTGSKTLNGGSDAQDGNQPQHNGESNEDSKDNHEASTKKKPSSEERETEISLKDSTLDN

For WTAVQMAVFIHNFKRK [INS], the Kd (LEDGF/p75) is given as 2200 ± 700 nM and the “cell permeability (result in words)” value [1] is given as “cell-permeable”.
